# Results: patent publication US10889849B2, “Oxidized glutathione assay” (PROMEGA CORPORATION, priority 2010, dated 2021)
# How the values were obtained:
# Format in all cases: cell-based
# Jurkat cells = assay: Determination of GSH:GSSG ratio in Jurkat cells; details: 60 minutes with 40 uM menadione
# Protocol: Suspension cells, such as Jurkat or […], are washed in Krebs-Ringer, Krebs-Henseleit, or Hank's Balanced Salts (HBSS) buffers to remove traces of medium and serum. Cells are then counted and diluted in one of the above buffers at the desired density. For Jurkat cells, 10,000 to 20,000 cells/well were used. 20 μl of cell suspension (at the desired density) were then added to wells of a 96-well plate. Enough wells with cells were plated for test compound treatment, vehicle-only treatment and no treatment controls. […]
# (§1) Compound treatment was removed and discarded from the adherent cells. […] Again, the plated was shook briefly, incubated at room temperature for 10 min, and luminescence read.
# (§2) The […] is calculated by dividing the moles of GSH in a sample by the moles of GSSG in a sample. Because each mole of GSSG produces two moles of GSH, and the assay produces a signal from all of the GSH produced by reduction of GSSG, a 2-fold adjustment is required in the number of moles of GSH quantified by the GSH standard curve.
# (§3) For background, the luminescence (RLUs) generated from no cell control or 0 μM GSH from the standard curve was used. […] The GSH/GSSG ratio for untreated cells was calculated using the formula: […]
# iv. […] GSSG and GSH were detected by the method described in A. The ratio GSH/GSSG was calculated as described in B
# A549 cells [1] = assay: Measurements of cell lysis (LDH release and ATP levels); details: menadione treatment, data not shown
# Description: From the data in Table 7 and FIG. 9, it is clear that measurement of GSSG in the media alone would have indicated some effect of the menadione treatment on the cells.
# HepG2 cells = assay: Determination of GSH:GSSG ratio in HepG2 cells; details: HepG2 cells, 5,000 cells/well, 60 minutes with 40 uM menadione
# Protocol: (§4) The assay is optimized for low cell densities such as HeLa or HepG2 cells at 5,000-10,000 cells per well and hepatocytes at 10,000 to 20,000 cells/well. HeLa or HepG2 cells were plated on Corning Costar 3903 96-well flat bottom tissue culture-treated white with clear bottom. Hepatocytes were plated on BD BioCoat™ 4650 96-well Collagen 1 Cellware. Hepatocytes were cultured with vendor recommended hepatocyte media. If clear walled tissue culture plates are used, a transfer step must be performed after Luciferase Detection Reagent (LDR) addition to get the reactions into luminometer plates. Plate cells and incubate overnight at 37° C. in a 5% CO2 culture incubator.
# (§5) Menadione is a Reactive Oxygen Species (ROS) inducer and is used as a positive control. 40 μM Menadione was prepared in Krebs-Ringer, Krebs-Henseleit, or Hank's Balanced Salts (HBSS) buffers. Other buffers […] to dilute the Menadione as components of cell culture media, such as serum, phenol red, and cysteine, can interfere with the assay chemistry. No treatment controls (vehicle only) were performed by exchanging the culture media on the cells with buffer+ vehicle at the same time as treating the cells with Menadione.
# (§6) The below reagent was prepared for measurement of GSSG. […]
# as §1, §2, §3
# iii. […] GSSG and GSH were detected by the method described in A. The ratio GSH/GSSG was calculated as described in B.
# A549 cells [2] = assay: Detection of reactive oxygen effects by sampling media (GSSG and GSH in cells and media); details: 1 hour
# Protocol: A549 cells were plated at a density of 5,000 cells per well in a 96-well tissue culture plate in 100 ul of DMEM with 10% fetal calf serum and incubated for 48 hours at 37° C. with 10% CO2. After incubation, the media was removed, discarded, and replaced with HBSS buffer with or without 40 uM menadione. The plate was then incubated for 1 hour at 37° C. with 10% CO2.
# After the 1 hour treatment, the HBSS buffer from the cells was transferred to a fresh, 96-well plate. The cells were then given 100 ul of fresh HBSS buffer and a concentrated solution of PLB with or without NEM. The following conditions (in triplicate) resulted from these manipulations: • 1. Cell GSH and GSSG were measured from the lysate of cells where the vehicle or menadione treatment with HBSS buffer was removed prior to lysis. • 2. Media GSH and GSSG were measure from the HBSS buffer transferred from the cells. • 3. Total GSH and total GSSG were measured from the lysate of cells treated with HBSS buffer where the HBSS buffer was not removed prior to addition of PLB.
# For measurement of GSSG, samples were given a mixture containing GST-22, 25 mM NEM, and 1× Passive Lysis Buffer. For measurement of GSH, samples were given a mixture containing GST-22 and 1× Passive Lysis Buffer. Samples were incubated for 5 minutes at room temperature, and 25 μl LDR with 100 mM DTT and GST added. Samples were then incubated for 30 minutes at room temperature, and 150 μl LDR added. Luminescence was detected after 15 minute room temperature incubation.
# It should be noted that one could expect the total glutathione species from the media and the cells to be about equal to the total well measurement. This calculation is shown in the third row of Table 7. The ratio of GSH to GSSG was also determined (FIG. 10).
# HeLa cells = assay: Determination of GSH:GSSG ratio in HeLa cells; details: HeLa cells, 5,000 cells/well, 60 minutes with 40 uM menadione
# Protocol: as §4, §5, §6, §1, §2, §3
# i. […] GSSG and GSH were detected by the method described in A. The ratio GSH/GSSG was calculated as described in B.
# Rat hepatocytes = assay: Determination of GSH:GSSG ratio in rat hepatocytes; details: Rat hepatocytes, 20,000 cells/well, 60 minutes with 40 uM menadione
# Protocol: as §4
# as §5, with “Menadione. […]” for “Menadione.”
# as §1, §2, §3
# ii: Rat hepatocytes, 20,000 cells/well, were treated as in i. GSSG and GSH were detected by the method described in A. The ratio GSH/GSSG was calculated as described in B.
# [3] = 40 uM menadione in HBSS, HBSS buffer transferred from the cells
# [4] = 40 uM menadione in HBSS, lysate of cells, buffer removed prior to lysis
# [5] = 40 uM menadione, HBSS buffer not removed prior to addition of PLB
# [6] = 40 uM menadione, calculated sum of cell and media
smiles,measurement,setting,value
CC1=CC(=O)c2ccccc2C1=O [Menadione],Ratio-Treated (GSH/GSSG),"Jurkat cells; Jurkat cells, 10,000 cells/well",3.8
same,Ratio-Treated (GSH/GSSG),"Jurkat cells; Jurkat cells, 20,000 cells/well",3.6
same,Cell lysis (LDH release and ATP levels),A549 cells [1],did not suggest that any lysis had taken place
same,"Ratio GSH/GSSG, treated",HepG2 cells,1.5
same,"Treated Net RLU, GSH",HepG2 cells,4162074 RLU
same,"Treated Net RLU, GSSG",HepG2 cells,2364652 RLU
same,"GSH, averaged RLU, Media",A549 cells [2]; [3],"3,491,077 RLU"
same,"GSSG, averaged RLU, Media",A549 cells [2]; [3],"2,494,444 RLU"
same,"GSH, averaged RLU, Cell",A549 cells [2]; [4],"10,613,488 RLU"
same,"GSSG, averaged RLU, Cell",A549 cells [2]; [4],"464,099 RLU"
same,"GSH, averaged RLU, Total Well",A549 cells [2]; [5],"12,903,498 RLU"
same,"GSSG, averaged RLU, Total Well",A549 cells [2]; [5],"3,189,598 RLU"
same,"GSH, RLU, Total (Cell + Media)",A549 cells [2]; [6],"14,104,565 RLU"
same,"GSSG, RLU, Total (Cell + Media)",A549 cells [2]; [6],"2,958,543 RLU"
same,"Ratio GSH/GSSG, treated",HeLa cells,2.2
same,"Treated Net RLU, GSH",HeLa cells,12364719 RLU
same,"Treated Net RLU, GSSG",HeLa cells,5894364 RLU
same,"Ratio GSH/GSSG, treated",Rat hepatocytes,1.1
same,"Treated Net RLU, GSH",Rat hepatocytes,10722488 RLU
same,"Treated Net RLU, GSSG",Rat hepatocytes,6900404 RLU
